Earlier results as cited in patent publication US6348490B1, “Dosage forms containing thioctic acid or solid salts of thioctic acid with improved release and bioavailability” (Asta Medica Aktiengesellschaft, priority 1994, dated 2002).

How the values were obtained:
[1] = factor versus racemate
[2] = factor versus racemate; remark: listed apart in the source

Compound	anti-inflammatory action, factor stronger than that of the racemate [1]	anti-nociceptive (analgesic) action, factor stronger than that of the racemate [2]
O=C(O)CCCC[C@@H]1CCSS1 [R-Thioctic acid, R-thioctic acid]	10	
O=C(O)CCCC[C@H]1CCSS1 (single isomer, unassigned) [S-enantiomer, S-thioctic acid]		6
